Values of other authors in patent US9182414B2, “Methods for identifying a GLP-1 secretagogue” (Arena Pharmaceuticals, Inc., priority 2005, dated 2015).
Square brackets hold non-standard residues; d marks the D form. Peptide text beside a SMILES is read from it. * marks the point of attachment. NHPhenethyl = c1ccc(CCN*)cc1; Nphe = O=C(O)CNCc1ccccc1; PhAc = O=C(Cc1ccccc1)*; βAla = NCCC(=O)O

Molecular target: T1, BRS-3 (Homo sapiens, UniProt P32247)
T1 sequence (P32247 1-399): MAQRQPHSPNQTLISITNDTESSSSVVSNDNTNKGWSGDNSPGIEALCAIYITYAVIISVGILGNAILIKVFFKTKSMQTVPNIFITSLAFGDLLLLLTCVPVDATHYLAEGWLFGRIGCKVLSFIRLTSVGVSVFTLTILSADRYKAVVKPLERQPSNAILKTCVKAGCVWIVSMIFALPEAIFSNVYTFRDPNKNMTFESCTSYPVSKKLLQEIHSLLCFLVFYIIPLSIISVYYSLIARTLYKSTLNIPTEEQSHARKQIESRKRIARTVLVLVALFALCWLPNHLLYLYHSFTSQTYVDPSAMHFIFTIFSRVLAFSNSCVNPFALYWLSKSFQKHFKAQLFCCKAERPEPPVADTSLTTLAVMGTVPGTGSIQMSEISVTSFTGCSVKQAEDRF
Conditions: BRS-3 over GRP-R and NMB-R; description taken from literature
In the case of `O=C(CC1NCCc2ccccc21)NNC(=O)N[C@H](Cc1c[nH]c2ccccc12)C(=O)NCCc1ccccc1` (stereo partly drawn) [Compound 19, N1-(2-Phenylethyl)-(2R)-2-{{N′-(2-(1,2,3,4-tetrahydro-1-isoquinolinyl)ethanoyl)hydrazino]carboxamido}-3-(1H-3-indolyl)propanamide], the “selectivity as BRS-3 agonist” value is listed as “selective BRS-3 agonists”. For `O=C(NNCc1ccco1)N[C@H](Cc1c[nH]c2ccccc12)C(=O)NCCc1ccccc1` [Compound 25, N1-(2-Phenylethyl)-(2R)-2-{[N′-(2-furylmethyl)hydrazino]carboxamido}-3-(1H-3-indolyl)propanamide], the “selectivity as BRS-3 agonist” value is listed as “selective BRS-3 agonists”. In the case of `C[C@H](NC(=O)Cc1cccnc1)C(=O)N[C@H](Cc1c[nH]c2ccccc12)C(=O)NCCc1ccccc1` [Compound 6, N1-(2-Phenylethyl)-(2R)-2-{[(1S)-1-((3-pyridyl)methylcarboxamido)ethyl]carboxamido}-3-(1H-3-indolyl)propanamide], the “selectivity as BRS-3 agonist” value is given as “selective BRS-3 agonists”. In the case of `NC(=O)CC[C@H](NC(=O)CCc1ccc(Cl)cc1)C(=O)N[C@H](Cc1c[nH]c2ccccc12)C(=O)NCCc1ccccc1` [Compound 1, N1-{(1R)-2-(1H-3-Indolyl)-1-[1-(2-phenylethyl)carbamoyl]ethyl}-(2S)-2-[1-(2-(4-chlorophenyl)ethyl)carboxamido]pentanediamide], the “selectivity as BRS-3 agonist” value is listed as “selective BRS-3 agonists”. For `C[C@H](NC(=O)CC1NCCc2ccccc21)C(=O)N[C@H](Cc1c[nH]c2ccccc12)C(=O)NCCc1ccccc1` (stereo partly drawn) [Compound 7, N1-(2-Phenylethyl)-(2R)-2-{[(1S)-1-((1,2,3,4-tetrahydro-1-isoquinolinyl)methylcarboxamido)ethyl]carboxamido}-3-(1H-3-indolyl)propanamide], the “selectivity as BRS-3 agonist” value is listed as “selective BRS-3 agonists”. For `O=C(NNCc1ccc(Cl)cc1)N[C@H](Cc1c[nH]c2ccccc12)C(=O)NCCc1ccccc1` [Compound 24, N1-(2-Phenylethyl)-(2R)-2-{[N′-(4-chlorobenzyl)hydrazino]carboxamido}-3-(1H-3-indolyl)propanamide], the “selectivity as BRS-3 agonist” value is given as “selective BRS-3 agonists”. For `O=C(NNC(=O)c1ccc(Cl)cc1)N[C@H](Cc1c[nH]c2ccccc12)C(=O)NCCc1ccccc1` [Compound 17, N1-(2-Phenylethyl)-(2R)-2-{{N′-(4-chlorobenzoyl)-hydrazino]carboxamido}-3-(1H-3-indolyl)propanamide], the “selectivity as BRS-3 agonist” value is given as “selective BRS-3 agonists”. For `CC(NCc1ccc(Cl)cc1)C(=O)N[C@H](Cc1c[nH]c2ccccc12)C(=O)NCCc1ccccc1` (stereo partly drawn) [Compound 14, N1-(2-Phenylethyl)-(2R)-2-{[1-((4-chlorobenzyl)amino)ethyl]carboxamido}-3-(1H-3-indolyl)propanamide], the “selectivity as BRS-3 agonist” value is listed as “selective BRS-3 agonists”. For `O=C(CNCc1ccc(Cl)cc1)N[C@H](Cc1c[nH]c2ccccc12)C(=O)NCCc1ccccc1` [Compound 10, N1-(2-Phenylethyl)-(2R)-2-{[(4-chlorobenzyl)amino]-methylcarboxamido}-3-(1H-3-indolyl)propanamide], the “selectivity as BRS-3 agonist” value is listed as “selective BRS-3 agonists”. In the case of `C[C@H](NC(=O)Cc1ccccc1)C(=O)N[C@H](Cc1c[nH]c2ccccc12)C(=O)NCCc1ccccc1` [Compound 3, N1-(2-Phenylethyl)-(2R)-2-{[(1S)-1-(benzylcarboxamido)ethyl]carboxamido}-3-(1H-3-indolyl)propanamide] (PhAc-Ala-[dW]-NHPhenethyl), the “selectivity as BRS-3 agonist” value is given as “selective BRS-3 agonists”. In the case of `O=C(NNC(=O)c1ccccc1)N[C@H](Cc1c[nH]c2ccccc12)C(=O)NCCc1ccccc1` [Compound 16, N1-(2-Phenylethyl)-(2R)-2-{{N′-(benzoyl)hydrazino]carboxamido}-3-(1H-3-indolyl)propanamide], the “selectivity as BRS-3 agonist” value is given as “selective BRS-3 agonists”. For “Ac-Phe-Trp-Ala-His(τBzl)-βAla-His-Arg-NH2 [Compound 32]”, the “selectivity as BRS-3 agonist” value is given as “selective BRS-3 agonists”. In the case of `C[C@H](NC(=O)Cc1ccc2c(c1)OCO2)C(=O)N[C@H](Cc1c[nH]c2ccccc12)C(=O)NCCc1ccccc1` [Compound 5, N1-(2-Phenylethyl)-(2R)-2-{[(1S)-1-((1,3-benzodioxol-5-ylmethyl)carboxamido)ethyl]carboxamido}-3-(1H-3-indolyl)propanamide], the “selectivity as BRS-3 agonist” value is listed as “selective BRS-3 agonists”. For `O=C(Cc1cccnc1)NNC(=O)N[C@H](Cc1c[nH]c2ccccc12)C(=O)NCCc1ccccc1` [Compound 18, N1-(2-Phenylethyl)-(2R)-2-{[N′-(2-(3-pyridyl)ethanoyl)hydrazino]carboxamido}-3-(1H-3-indolyl)propanamide], the “selectivity as BRS-3 agonist” value is listed as “selective BRS-3 agonists”. In the case of `O=C(NN=Cc1ccccc1)N[C@H](Cc1c[nH]c2ccccc12)C(=O)NCCc1ccccc1` [Compound 21, N1-(2-Phenylethyl)-(2R)-2-{[N′-(phenylmethylene)-hydrazino]carboxamido}-3-(1H-3-indolyl)propanamide], the “selectivity as BRS-3 agonist” value is given as “selective BRS-3 agonists”. For `O=C(CNCc1cccnc1)N[C@H](Cc1c[nH]c2ccccc12)C(=O)NCCc1ccccc1` [Compound 11, N1-(2-Phenylethyl)-(2R)-2-{[(3-pyridyl)methylamino]-methylcarboxamido}-3-(1H-3-indolyl)propanamide], the “selectivity as BRS-3 agonist” value is listed as “selective BRS-3 agonists”. For `O=C(NN=Cc1ccco1)N[C@H](Cc1c[nH]c2ccccc12)C(=O)NCCc1ccccc1` [Compound 22, N1-(2-Phenylethyl)-(2R)-2-{[N′-(furan-2-ylmethylene)hydrazino]carboxamido}-3-(1H-3-indolyl)propanamide], the “selectivity as BRS-3 agonist” value is listed as “selective BRS-3 agonists”. For `O=C(Cc1cc2ccccc2[nH]1)NNC(=O)N[C@H](Cc1c[nH]c2ccccc12)C(=O)NCCc1ccccc1` [Compound 20, N1-(2-Phenylethyl)-(2R)-2-{[N′-(2-(1H-2-indolyl)ethanoyl)hydrazino]carboxamido}-3-(1H-3-indolyl)propanamide], the “selectivity as BRS-3 agonist” value is listed as “selective BRS-3 agonists”. For “Ac-Phe-Trp-Ala-His(τBzl)-Nip-Gly-Arg-NH2 [Compound 31]”, the “selectivity as BRS-3 agonist” value is listed as “selective BRS-3 agonists”. For Ac-FWAV[βAla]HRW-NH2 [Compound 33], the “selectivity as BRS-3 agonist” value is listed as “selective BRS-3 agonists”. For `O=C(NNCc1ccccc1)N[C@H](Cc1c[nH]c2ccccc12)C(=O)NCCc1ccccc1` [Compound 23, N1-(2-Phenylethyl)-(2R)-2-{[N′-(benzyl)hydrazino]carboxamido}-3-(1H-3-indolyl)propanamide], the “selectivity as BRS-3 agonist” value is listed as “selective BRS-3 agonists”. In the case of `CC(NCc1ccccc1)C(=O)N[C@H](Cc1c[nH]c2ccccc12)C(=O)NCCc1ccccc1` (stereo partly shown) [Compound 13], the “selectivity as BRS-3 agonist” value is given as “selective BRS-3 agonists”. In the case of `NC(=O)CC[C@H](NC(=O)Cc1cc2ccccc2[nH]1)C(=O)N[C@H](Cc1c[nH]c2ccccc12)C(=O)NCCc1ccccc1` [Compound 2, N1-{(1R)-2-(1H-3-Indolyl)-1-[1-(2-phenylethyl)carbamoyl]ethyl}-(2S)-2-[(1H-2-indolylmethyl)carboxamido]pentanediamide], the “selectivity as BRS-3 agonist” value is given as “selective BRS-3 agonists”. In the case of `C[C@H](NC(=O)Cc1ccc(Cl)cc1)C(=O)N[C@H](Cc1c[nH]c2ccccc12)C(=O)NCCc1ccccc1` [Compound 4, N1-(2-Phenylethyl)-(2R)-2-{[(1S)-1-((4-chlorobenzyl)-carboxamido)ethyl]carboxamido}-3-(1H-3-indolyl)propanamide], the “selectivity as BRS-3 agonist” value is listed as “selective BRS-3 agonists”. In the case of `CC(NCCc1ccccc1)C(=O)N[C@H](Cc1c[nH]c2ccccc12)C(=O)NCCc1ccccc1` (stereo partly drawn) [Compound 15, N1-(2-Phenylethyl)-(2R)-2-{[1-(1-(2-phenylethyl)amino)ethyl]carboxamido}-3-(1H-3-indolyl)propanamide], the “selectivity as BRS-3 agonist” value is given as “selective BRS-3 agonists”. In the case of `O=C(CN1CCN(Cc2ccccc2)CC1)N[C@H](Cc1c[nH]c2ccccc12)C(=O)NCCc1ccccc1` [Compound 26], the “selectivity as BRS-3 agonist” value is listed as “selective BRS-3 agonists”. For “[D-Tyr^6,βAla^11,Phe^13,Nle^14]Bombesin(6-14) [Compound 34]”, the “selectivity as BRS-3 agonist” value is listed as “non-selective for BRS-3 over GRP-R and NMB-R”. For `O=C(CNCc1ccccc1)N[C@H](Cc1c[nH]c2ccccc12)C(=O)NCCc1ccccc1` [Compound 9, N1-(2-Phenylethyl)-(2R)-2-{[(benzyl)amino]methylcarboxamido}-3-(1H-3-indolyl)propanamide] (H-[Nphe]-[dW]-NHPhenethyl), the “selectivity as BRS-3 agonist” value is given as “selective BRS-3 agonists”. In the case of `O=C(CNCCc1ccccc1)N[C@H](Cc1c[nH]c2ccccc12)C(=O)NCCc1ccccc1` [Compound 12, N1-(2-Phenylethyl)-(2R)-2-{[1-(2-phenylethyl)amino]-methylcarboxamido}-3-(1H-3-indolyl)propanamide], the “selectivity as BRS-3 agonist” value is listed as “selective BRS-3 agonists”. For `C[C@H](NC(=O)Cc1cc2ccccc2[nH]1)C(=O)N[C@H](Cc1c[nH]c2ccccc12)C(=O)NCCc1ccccc1` [Compound 8, N1-(2-Phenylethyl)-(2R)-2-{[(1S)-1-((1H2-indolyl)methylcarboxamido)ethyl]carboxamido}-3-(1H-3-indolyl)propanamide], the “selectivity as BRS-3 agonist” value is listed as “selective BRS-3 agonists”. For `O=C(CN1CCC(Cc2ccccc2)CC1)N[C@H](Cc1c[nH]c2ccccc12)C(=O)NCCc1ccccc1` [Compound 27, N1-(2-Phenylethyl)-(2R)-2-{[(4-benzylpiperidino)methyl]carboxamido}-3-(1H-3-indolyl)propanamide], the “selectivity as BRS-3 agonist” value is given as “selective BRS-3 agonists”.
